Assay results: patent publication US7503967B2, “Azo compound, ink composition and colored article” (Nippon Kayaku Kabushiki Kaisha, priority 2004, dated 2009)

Assay: solubility in water of the azo compound
Assay type: physicochemical
Conditions: mixed salt of lithium and sodium

| solubility [mg/mL] | SMILES |
| --- | --- |
| ≥ 100 | Nc1c(N=Nc2ccc3c(O)c(N=Nc4ccc(N=Nc5ccc(S(=O)(=O)O)cc5)cc4S(=O)(=O)O)c(S(=O)(=O)O)cc3c2S(=O)(=O)O)cc(S(=O)(=O)O)c2cc(S(=O)(=O)O)c(N=Nc3ccc([N+](=O)[O-])cc3S(=O)(=O)O)c(O)c12 [compound 1] |
| ≥ 100 | Nc1c(N=Nc2ccc3c(O)c(N=Nc4ccc(N=Nc5ccc(S(=O)(=O)O)cc5)cc4S(=O)(=O)O)c(S(=O)(=O)O)cc3c2S(=O)(=O)O)cc(S(=O)(=O)O)c2cc(S(=O)(=O)O)c(N=Nc3ccc(S(=O)(=O)O)cc3[N+](=O)[O-])c(O)c12 [compound 3] |
| ≥ 100 | Cc1cc(N=Nc2c(S(=O)(=O)O)cc3c(S(=O)(=O)O)c(N=Nc4cc(S(=O)(=O)O)c5cc(S(=O)(=O)O)c(N=Nc6ccc([N+](=O)[O-])cc6S(=O)(=O)O)c(O)c5c4N)ccc3c2O)c(OCCCS(=O)(=O)O)cc1N=Nc1ccc(S(=O)(=O)O)cc1C(=O)O [compound 21] |

| SMILES | solubility [mg/mL] |
| --- | --- |
| Cc1cc(N=Nc2c(S(=O)(=O)O)cc3c(S(=O)(=O)O)c(N=Nc4cc(S(=O)(=O)O)c5cc(S(=O)(=O)O)c(N=Nc6ccc([N+](=O)[O-])cc6S(=O)(=O)O)c(O)c5c4N)ccc3c2O)c(OCCCS(=O)(=O)O)cc1N=Nc1ccc([N+](=O)[O-])cc1S(=O)(=O)O [compound 16] | ≥ 100 |
